{
  "source": "patent US11813239B2",
  "about": "“Compositions and methods for improving cardiac structure and/or function” (Wisconsin Alumni Research Foundation, priority 2020, dated 2023)",
  "key": {"[1]": {"tested_on": "postnatal (P7) mouse heart following myocardial infarction", "assay": "Echocardiography after myocardial infarction in P7 juvenile mice", "details": "for % EF (Ejection Fraction) / % FS (Fractional Shortening) / LV Mass (Left Ventricular Mass, Anatomical Weight) / LV Vol; d (Left Ventricular Volume; diastole) / LV Vol; s (Left Ventricular Volume; systole) / LVAWD (Left Ventricle Anterior Wall Thickness Diastole) / LVAWS (Left Ventricle Anterior Wall Thickness Systole) / LVIDD (Left Ventricle Internal Diameter Diastole) / LVIDS (Left Ventricle Internal Diameter Systole) / LVPWD (Left Ventricle Posterior Wall Thickness Diastole) / LVPWS (Left Ventricle Posterior Wall Thickness Systole): Atpenin A5 100 μg/kg daily, mean ± SE", "description": "(§1) Neonatal mice at postnatal day 1 (P1) or day 7 (P7) were used for myocardial infarction (MI) surgery. Neonatal mice were subjected to MI surgeries as previously described. Briefly, neonates were anesthetized by hypothermia on ice. Lateral thoracotomy at the fourth intercostal space was performed by blunt dissection of the intercostal muscles after skin incision. A C-1 tapered needle attached to a 6-0 prolene suture (Ethicon Inc., Bridgewater, N.J.) was passed through the mid-ventricle below the left anterior descending coronary artery (LAD) and tied off to induce MI. The prolene suture was used to suture the ribs together and seal the chest wall incisions, and the skin was closed using adhesive glue (3M). The mice then were warmed on a heating pad until recovery. Sham-operated mice underwent the same procedure including hypothermic anesthesia, but not LAD ligation.\n(§2) Neonatal mice were weighed and injected daily with either saline, 100 mg/kg dimethyl succinate (Sigma), 100 mg/kg dimethyl malonate (Sigma), or 100 μg/kg Atpenin A5 (Enzo Life Sciences). Dimethyl succinate and dimethyl malonate were dissolved in saline. Stock solution of Atpenin A5 at 0.1 mg/ml was initially prepared by dissolving in DMSO (Sigma) and then further diluted with saline before injection. Saline was used as a vehicle control for all experiments.\nTransthoracic echocardiography was performed by using a Visual Sonics 770 ultrasonograph with a 25-MHz transducer (Visual Sonics, Toronto) as described previously^19. Mice were lightly anesthetized with 1% isoflurane and maintained on a heated platform. Two-dimensionally guided M-mode images from a parasternal long axis (PLAX) of the left ventricle (LV) were acquired at the tip of the papillary muscles. Wall thickness and chamber diameters were measured in both diastole and systole. Fractional shortening was calculated as (LVDd−LVDs)/LVDd×100, where LVDd is LV diameter in diastole and LVDs is LV diameter in systole. Ejection fraction was calculated as [(7.0/(2.4+LVDd)(LVDd)^3−(7.0/(2.4+LVDs)(LVDs)^3/(7.0/(2.4+LVDd)(LVDd)^3×100 and LV mass was calculated by using the formula [1.05×((Posterior Walldiastole+Anterior Walldiastole+LVDd)^3−(LVDd)^3)]. All parameters were measured over at least three consecutive cycles.\nWe injected dimethyl malonate (100 mg/kg, daily) in neonatal mice directly after birth for 2 weeks with an MI performed once the mice reached P7. We then analyzed the hearts following injury to determine whether malonate results in prolongation of the neonatal regenerative window (FIG. 10A)."}, "[2]": {"tested_on": "cardiomyocytes", "assay": "Immunostaining (pH3, Aurora B), WGA and trichrome staining after MI in P7 mice", "details": "vs controls", "excerpt": "We then analyzed the hearts following injury to determine whether malonate results in prolongation of the neonatal regenerative window (FIG. 5A). To examine whether malonate stimulates cardiomyocyte proliferation, we performed MI in 7-day-old mice and analyzed their hearts at 7 days post-MI by immunostaining for markers of proliferation.\nas §1, §2\nHearts were harvested and fixed in 4% paraformaldehyde (PFA) in PBS solution overnight at 4° C., processed for paraffin embedding, and sectioned in intervals. Masson's trichrome staining was performed according to the manufacture's protocol (Newcomer Supply, Middleton, WI). Scar size measurements were quantified from at least 3 sections of the heart from ligature to apex. ImageJ was used to quantify the fibrotic scar, and the average scar area for each heart was plotted.\nWe injected dimethyl malonate (100 mg/kg, daily) in neonatal mice directly after birth for 2 weeks with an MI performed once the mice reached P7."}, "[3]": {"biological_target": "SDH (Homo sapiens, UniProt O14521+P21912+Q99643)", "sequence (P31040 43-664 partner)": "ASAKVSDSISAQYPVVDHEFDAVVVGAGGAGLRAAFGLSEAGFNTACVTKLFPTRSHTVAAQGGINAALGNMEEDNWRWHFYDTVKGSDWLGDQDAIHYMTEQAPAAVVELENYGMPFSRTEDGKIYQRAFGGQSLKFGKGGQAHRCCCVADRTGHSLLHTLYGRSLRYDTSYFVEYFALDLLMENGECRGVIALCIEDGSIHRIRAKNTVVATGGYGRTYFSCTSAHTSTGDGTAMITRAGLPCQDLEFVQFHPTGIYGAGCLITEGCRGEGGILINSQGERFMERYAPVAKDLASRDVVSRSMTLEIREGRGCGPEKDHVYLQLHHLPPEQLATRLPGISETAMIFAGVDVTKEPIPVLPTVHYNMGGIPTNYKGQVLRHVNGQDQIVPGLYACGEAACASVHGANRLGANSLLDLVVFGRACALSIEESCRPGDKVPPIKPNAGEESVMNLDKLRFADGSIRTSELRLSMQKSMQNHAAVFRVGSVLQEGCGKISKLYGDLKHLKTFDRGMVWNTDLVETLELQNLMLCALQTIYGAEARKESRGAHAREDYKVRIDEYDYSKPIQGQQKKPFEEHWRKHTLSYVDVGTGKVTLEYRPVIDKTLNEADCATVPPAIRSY", "sequence (P21912 29-280)": "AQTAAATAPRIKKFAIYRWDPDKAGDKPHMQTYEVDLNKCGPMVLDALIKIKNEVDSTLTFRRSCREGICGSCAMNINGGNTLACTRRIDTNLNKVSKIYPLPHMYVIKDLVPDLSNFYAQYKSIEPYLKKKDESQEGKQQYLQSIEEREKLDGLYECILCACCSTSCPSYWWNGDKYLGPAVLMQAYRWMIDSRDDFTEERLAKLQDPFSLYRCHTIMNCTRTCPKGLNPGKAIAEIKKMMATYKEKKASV", "sequence (Q99643 30-169)": "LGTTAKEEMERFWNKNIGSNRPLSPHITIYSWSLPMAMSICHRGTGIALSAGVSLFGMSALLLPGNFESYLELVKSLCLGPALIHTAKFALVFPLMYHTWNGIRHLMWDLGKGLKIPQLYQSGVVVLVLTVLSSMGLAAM", "sequence (O14521 57-159)": "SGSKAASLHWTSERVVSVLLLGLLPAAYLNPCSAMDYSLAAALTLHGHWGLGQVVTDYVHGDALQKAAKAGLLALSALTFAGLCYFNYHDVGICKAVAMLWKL", "details": "literature reference 21 (Miyadera et al. 2003); cited from earlier work"}, "[4]": {"details": "MI at P7 (n = 8), echo 21 days post-MI (P7D21)"}, "[5]": {"details": "sham at P7 (SH, n = 6), echo at day 21 (P7D21)"}, "[6]": {"details": "MI at P7, Atpenin A5 100 μg/kg daily, 7 days post-MI"}, "[7]": {"details": "MI at P7, Atpenin A5 100 μg/kg daily, 21 days post-MI"}},
  "data": [
    {"smiles": "COC1=C(OC)C(=O)C(CCCCCCCCCC[P+](c2ccccc2)(c2ccccc2)c2ccccc2)=C(C)C1=O", "note": "[MitoQ]", "values": [
      {"measurement": "cardiac function by echocardiography (EF and FS)", "setting": "[1]; MI at P7, MitoQ 10 mg/kg intraperitoneally daily for 2 weeks after birth, vs controls", "result": "no improvement in cardiac function"},
      {"measurement": "cardiomyocyte mitosis (pH3 immunostaining)", "setting": "[2]; MI at P7, MitoQ 10 mg/kg intraperitoneally daily for 2 weeks after birth, 7 days post-MI", "result": "significant increase in cardiomyocyte mitosis"}
    ]},
    {"smiles": "COc1[nH]c(=O)c(C(=O)[C@@H](C)C[C@H](C)[C@@H](Cl)CCl)c(O)c1OC", "note": "[Atpenin A5]", "values": [
      {"measurement": "% EF (Ejection Fraction)", "setting": "[1]; [4]", "result": "49.676 ± 2.072", "unit": "%"},
      {"measurement": "% FS (Fractional Shortening)", "setting": "[1]; [4]", "result": "24.642 ± 1.227", "unit": "%"},
      {"measurement": "LV Mass (Left Ventricular Mass, Anatomical Weight)", "setting": "[1]; [4]", "result": "54.203 ± 7.978", "unit": "mg"},
      {"measurement": "LV Vol; d (Left Ventricular Volume; diastole)", "setting": "[1]; [4]", "result": "50.033 ± 6.416", "unit": "µL"},
      {"measurement": "LV Vol; s (Left Ventricular Volume; systole)", "setting": "[1]; [4]", "result": "25.290 ± 3.427", "unit": "µL"},
      {"measurement": "LVAWD (Left Ventricle Anterior Wall Thickness Diastole)", "setting": "[1]; [4]", "result": "0.525 ± 0.023", "unit": "mm"},
      {"measurement": "LVAWS (Left Ventricle Anterior Wall Thickness Systole)", "setting": "[1]; [4]", "result": "0.644 ± 0.032", "unit": "mm"},
      {"measurement": "LVIDD (Left Ventricle Internal Diameter Diastole)", "setting": "[1]; [4]", "result": "3.438 ± 0.167", "unit": "mm"},
      {"measurement": "LVIDS (Left Ventricle Internal Diameter Systole)", "setting": "[1]; [4]", "result": "2.592 ± 0.132", "unit": "mm"},
      {"measurement": "LVPWD (Left Ventricle Posterior Wall Thickness Diastole)", "setting": "[1]; [4]", "result": "0.521 ± 0.025", "unit": "mm"},
      {"measurement": "LVPWS (Left Ventricle Posterior Wall Thickness Systole)", "setting": "[1]; [4]", "result": "0.643 ± 0.027", "unit": "mm"},
      {"measurement": "cardiac function by echocardiography", "setting": "[1]; MI at P7, Atpenin A5 100 μg/kg daily, 3 weeks post-MI", "result": "restoration of cardiac function"},
      {"measurement": "% EF (Ejection Fraction)", "setting": "[1]; [5]", "result": "51.652 ± 3.984", "unit": "%"},
      {"measurement": "% FS (Fractional Shortening)", "setting": "[1]; [5]", "result": "25.773 ± 2.586", "unit": "%"},
      {"measurement": "LV Mass (Left Ventricular Mass, Anatomical Weight)", "setting": "[1]; [5]", "result": "42.822 ± 4.210", "unit": "mg"},
      {"measurement": "LV Vol; d (Left Ventricular Volume; diastole)", "setting": "[1]; [5]", "result": "39.614 ± 7.039", "unit": "µL"},
      {"measurement": "LV Vol; s (Left Ventricular Volume; systole)", "setting": "[1]; [5]", "result": "19.979 ± 4.374", "unit": "µL"},
      {"measurement": "LVAWD (Left Ventricle Anterior Wall Thickness Diastole)", "setting": "[1]; [5]", "result": "0.493 ± 0.042", "unit": "mm"},
      {"measurement": "LVAWS (Left Ventricle Anterior Wall Thickness Systole)", "setting": "[1]; [5]", "result": "0.615 ± 0.041", "unit": "mm"},
      {"measurement": "LVIDD (Left Ventricle Internal Diameter Diastole)", "setting": "[1]; [5]", "result": "3.100 ± 0.229", "unit": "mm"},
      {"measurement": "LVIDS (Left Ventricle Internal Diameter Systole)", "setting": "[1]; [5]", "result": "2.319 ± 0.221", "unit": "mm"},
      {"measurement": "LVPWD (Left Ventricle Posterior Wall Thickness Diastole)", "setting": "[1]; [5]", "result": "0.536 ± 0.027", "unit": "mm"},
      {"measurement": "LVPWS (Left Ventricle Posterior Wall Thickness Systole)", "setting": "[1]; [5]", "result": "0.648 ± 0.030", "unit": "mm"},
      {"measurement": "percentage of cardiomyocytes undergoing cytokinesis (Aurora B staining)", "setting": "[2]; [6]", "result": "significant increase"},
      {"measurement": "percentage of cardiomyocytes undergoing mitosis (pH3 staining)", "setting": "[2]; [6]", "result": "significant increase"},
      {"measurement": "myocardial regeneration (trichrome staining)", "setting": "[2]; [7]", "result": "myocardial thickness at the infarct zone"},
      {"measurement": "scar size (trichrome staining, ImageJ)", "setting": "[2]; [7]", "result": "significant reduction in scar size"},
      {"measurement": "inhibition of SDH", "setting": "[3]", "result": "potent inhibitor of SDH"}
    ]}
  ]
}
